Among the data in article PMC10096449, “Anti-SARS-CoV-2 Activity and Cytotoxicity of Amaryllidaceae Alkaloids from Hymenocallis littoralis” (Molecules, 2023) are EC50, IC50 and CC50 values, retold here.

The first data set relates to SARS-CoV-2. The data set can be described thus: microbe, parasite or virus in culture. Particulars: Severe acute respiratory syndrome coronavirus 2, 96 h, […]; read-out: EC50 (anti-SARS-CoV-2 activity). Type of data set: cell-based, SARS-CoV-2 isolate BetaCov/Belgium/GHB-03021/2020.
Usually EC50 stands for the concentration needed to bring the measured effect to its halfway point. For `Oc1ccc2c3c1OC1CC(O)CCC31CCNC2` (centres unmarked) [Compound 1, O-demethyl-norlycoramine], the EC50 is 45 µM.

As to `COc1cc2c(c(O)c1OC)[C@]13CC[C@H](OC)C[C@H]1N(CC3)[C@@H]2O` [Compound 4, 6α-hydroxyhippeastidine], the concentration for a half-maximal effect (EC50) was 44 µM.

`COc1cc2c(c(O)c1OC)[C@]13CC[C@H](OC)C[C@H]1N(CC3)[C@H]2O` [Compound 5, 6β-hydroxyhippeastidine]: the EC50 turned out to be 44 µM.

Consider `O[C@H]1[C@H]2c3cc4c(cc3CN3CCC(=C[C@H]1O)[C@H]23)OCO4` [Compound 7, 2-epi-lycorine], for which the EC50 was 54 µM.

In the case of `O[C@H]1[C@H]2c3cc4c(cc3CN3CCC(C[C@H]1O)[C@H]23)OCO4` (some centres unmarked) [Compound 8, zephyranthine], the EC50 is 40 to 77 µM.

`COc1cc2c(cc1O)[C@@H](OC)O[C@@H]1CC=C3CCN(C)[C@H]3[C@H]21` [Compound 11, 9-O-demethyl-7-O-methyllycorenine]: the EC50 fell in the range of 40 to 77 µM.

Still in this data set, the particulars now being: Severe acute respiratory syndrome coronavirus 2; read-out: IC50.
As a reminder, the IC50 is the concentration needed to halve the response being measured. As for `Oc1ccc2c3c1OC1CC(O)CCC31CCNC2` (centres unmarked) [Compound 1, O-demethyl-norlycoramine], the IC50 is 54 µM.

Turning to `O[C@H]1[C@H]2c3cc4c(cc3CN3CCC(=C[C@H]1O)[C@H]23)OCO4` [Compound 7, 2-epi-lycorine], the IC50 stood at 69.3 µM.

As for `O[C@H]1[C@H]2c3cc4c(cc3CN3CCC(C[C@H]1O)[C@H]23)OCO4` (some centres unmarked) [Compound 8, zephyranthine], the IC50 amounted to 37.1 µM.

Consider `COc1cc2c(cc1O)[C@@H](OC)O[C@@H]1CC=C3CCN(C)[C@H]3[C@H]21` [Compound 11, 9-O-demethyl-7-O-methyllycorenine], for which the IC50 was 99.4 µM.

Staying with this data set, now noted: Severe acute respiratory syndrome coronavirus 2; read-out: av. IC50.
As for `Oc1ccc2c3c1OC1CC(O)CCC31CCNC2` (centres unmarked) [Compound 1, O-demethyl-norlycoramine], the IC50 came to 45.8 µM.

`O[C@H]1[C@H]2c3cc4c(cc3CN3CCC(=C[C@H]1O)[C@H]23)OCO4` [Compound 7, 2-epi-lycorine]: the 50% inhibitory concentration (IC50) worked out at 54.2 µM.

As for `O[C@H]1[C@H]2c3cc4c(cc3CN3CCC(C[C@H]1O)[C@H]23)OCO4` (some centres unmarked) [Compound 8, zephyranthine], the IC50 turned out to be 39.6 µM.

On to `COc1cc2c(cc1O)[C@@H](OC)O[C@@H]1CC=C3CCN(C)[C@H]3[C@H]21` [Compound 11, 9-O-demethyl-7-O-methyllycorenine], for which the concentration for half-maximal inhibition (IC50) is 77.2 µM.

Staying with this data set, now noted: […]; read-out: EC50 (anti-SARS-CoV-2 activity).
On to `O[C@H]1[C@H]2c3cc4c(cc3CN3CCC(C[C@H]1O)[C@H]23)OCO4` (some centres unmarked) [Compound 8, zephyranthine], for which the EC50 was found to be 39 µM.

Tested on in another data set: not listed separately
Nature of the data set: in vitro. The settings on record: African green monkey, CC50 (cytotoxicity on Vero-E6 cells), MTS-assay, absence of virus.
In general, CC50 refers to the concentration giving 50% cytotoxicity. The compound `Oc1ccc2c3c1OC1CC(O)CCC31CCNC2` (centres unmarked) [Compound 1, O-demethyl-norlycoramine] returned a 50% cytotoxic concentration (CC50) above 100 µM.

`COc1cc2c(c(O)c1OC)[C@]13CC[C@H](OC)C[C@H]1N(CC3)[C@@H]2O` [Compound 4, 6α-hydroxyhippeastidine] yielded a CC50 above 100 µM.

In turn, `COc1cc2c(c(O)c1OC)[C@]13CC[C@H](OC)C[C@H]1N(CC3)[C@H]2O` [Compound 5, 6β-hydroxyhippeastidine] gave a CC50 above 100 µM.

`O[C@H]1[C@H]2c3cc4c(cc3CN3CCC(=C[C@H]1O)[C@H]23)OCO4` [Compound 7, 2-epi-lycorine] showed a CC50 above 100 µM.

As to `O[C@H]1[C@H]2c3cc4c(cc3CN3CCC(C[C@H]1O)[C@H]23)OCO4` (some centres unmarked) [Compound 8, zephyranthine], the CC50 was above 100 µM.

In turn, `COc1cc2c(cc1O)[C@@H](OC)O[C@@H]1CC=C3CCN(C)[C@H]3[C@H]21` [Compound 11, 9-O-demethyl-7-O-methyllycorenine] registered a half-maximal cytotoxic concentration (CC50) above 100 µM.

Still in this data set, the particulars now being: African green monkey, CC50 (µM), single experiment (duplicate experiments listed), Vero-E6 cells.
`Oc1ccc2c3c1OC1CC(O)CCC31CCNC2` (centres unmarked) [Compound 1, O-demethyl-norlycoramine] came in with a CC50 above 100 µM.

For `O[C@H]1[C@H]2c3cc4c(cc3CN3CCC(=C[C@H]1O)[C@H]23)OCO4` [Compound 7, 2-epi-lycorine], the 50% cytotoxic concentration (CC50) is above 100 µM.

As for `O[C@H]1[C@H]2c3cc4c(cc3CN3CCC(C[C@H]1O)[C@H]23)OCO4` (some centres unmarked) [Compound 8, zephyranthine], the CC50 was above 100 µM.

Regarding `COc1cc2c(cc1O)[C@@H](OC)O[C@@H]1CC=C3CCN(C)[C@H]3[C@H]21` [Compound 11, 9-O-demethyl-7-O-methyllycorenine], the CC50 is above 100 µM.

The same data set, now with this note: African green monkey, av. CC50 (µM), average of two experiments, Vero-E6 cells.
The compound `Oc1ccc2c3c1OC1CC(O)CCC31CCNC2` (centres unmarked) [Compound 1, O-demethyl-norlycoramine] had a CC50 above 100 µM.

Regarding `O[C@H]1[C@H]2c3cc4c(cc3CN3CCC(=C[C@H]1O)[C@H]23)OCO4` [Compound 7, 2-epi-lycorine], the CC50 is above 100 µM.

With `O[C@H]1[C@H]2c3cc4c(cc3CN3CCC(C[C@H]1O)[C@H]23)OCO4` (some centres unmarked) [Compound 8, zephyranthine], the CC50 is above 100 µM.

For the compound `COc1cc2c(cc1O)[C@@H](OC)O[C@@H]1CC=C3CCN(C)[C@H]3[C@H]21` [Compound 11, 9-O-demethyl-7-O-methyllycorenine], the CC50 is above 100 µM.
